The results in this text go back to US9884063B2, “Amido-substituted azole compounds” (Bayer Pharma Aktiengesellschaft, priority 2014, dated 2018).

The target in one assay is T1, TNKS2 (Homo sapiens, UniProt Q9H2K2).
T1 sequence (Q9H2K2 1-1166): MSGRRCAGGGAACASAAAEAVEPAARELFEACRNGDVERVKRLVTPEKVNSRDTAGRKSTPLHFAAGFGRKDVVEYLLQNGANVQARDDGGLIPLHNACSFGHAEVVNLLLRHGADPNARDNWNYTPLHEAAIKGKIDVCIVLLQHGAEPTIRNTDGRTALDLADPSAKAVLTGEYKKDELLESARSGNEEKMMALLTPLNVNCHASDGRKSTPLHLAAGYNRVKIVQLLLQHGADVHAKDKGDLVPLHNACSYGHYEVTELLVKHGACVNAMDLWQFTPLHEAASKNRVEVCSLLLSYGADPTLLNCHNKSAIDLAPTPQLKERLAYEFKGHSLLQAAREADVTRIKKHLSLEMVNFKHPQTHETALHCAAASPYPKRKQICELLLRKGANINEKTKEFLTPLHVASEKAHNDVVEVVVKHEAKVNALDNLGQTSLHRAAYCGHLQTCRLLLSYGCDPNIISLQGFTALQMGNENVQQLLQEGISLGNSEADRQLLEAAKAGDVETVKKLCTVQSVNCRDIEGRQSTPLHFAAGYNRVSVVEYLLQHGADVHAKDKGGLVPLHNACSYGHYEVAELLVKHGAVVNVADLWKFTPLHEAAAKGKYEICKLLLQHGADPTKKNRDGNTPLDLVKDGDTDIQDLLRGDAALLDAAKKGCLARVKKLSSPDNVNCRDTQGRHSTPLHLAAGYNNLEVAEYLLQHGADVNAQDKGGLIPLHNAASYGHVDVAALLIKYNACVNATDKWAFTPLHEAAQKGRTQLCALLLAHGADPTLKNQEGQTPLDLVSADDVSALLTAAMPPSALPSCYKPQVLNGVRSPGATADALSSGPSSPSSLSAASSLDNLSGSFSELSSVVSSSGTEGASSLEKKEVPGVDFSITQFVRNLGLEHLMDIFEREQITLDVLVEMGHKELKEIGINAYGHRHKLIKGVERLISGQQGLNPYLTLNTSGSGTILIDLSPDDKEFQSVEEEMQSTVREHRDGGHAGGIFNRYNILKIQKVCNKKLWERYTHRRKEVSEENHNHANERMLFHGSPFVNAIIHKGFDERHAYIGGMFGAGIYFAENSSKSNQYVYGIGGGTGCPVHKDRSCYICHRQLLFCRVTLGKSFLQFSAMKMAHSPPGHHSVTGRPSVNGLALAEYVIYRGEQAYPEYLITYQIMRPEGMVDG
Briefly: Modified TNKS2 Assay 2 (auto-parsylation, [3H]-NAD+ SPA). The format is biochemical. The following applies: 6 nM TNKS2, 96 well.

Assay [1] deals with HEK293 FOP control reporter cell line. As to the kind of experiment: HEK293 FOP Assay (FOP control vector luciferase reporter). The format is cell-based. The following applies: Homo sapiens. The gist of the method: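 Stable HEK293 line carrying the FOP vector (randomized, non-functional TCF sites; Geneticin-selected) was run in parallel with the TOP line. Cells were plated 24 h ahead at 10000/well and given recombinant human Wnt-3a at 2500–5 ng/ml. Compounds were tested at 50 μM–15 nM (3.16-fold steps) in CAFTY buffer, pH 7.4, with 2 mM Ca2+ and 0.01% BSA.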
On the technique in general: Reporter assays use an easily measured gene product as a stand-in for the process of interest.

[2] abbreviates: HEK293 FOP control reporter cell line, 16 hours incubation, compound dilution series 50 μM to 15 nM.
Where [3] appears, read: HEK293 FOP control reporter cells, 16 hours, luciferase, dilution series from 50 μM.

On to `CNC(=O)c1nc[nH]c1C(=O)Nc1ccc(NC(=O)c2cc(Br)ccc2Cl)cc1` [Example 313, N^5-{4-[(5-bromo-2-chlorobenzoyl)amino]phenyl}-N^4-methyl-1H-imidazole-4,5-dicarboxamide], for which the IC50 (commonly the concentration at which inhibition is half-maximal) against TNKS2 is 1 µM; in assay [1] (setting [2]), 25 µM.
For `CNC(=O)c1nc[nH]c1C(=O)Nc1ccc(NC(=O)c2ccc(Cl)cc2F)cc1` [Example 333, N^5-{4-[(4-chloro-2-fluorobenzoyl)amino]phenyl}-N^4-methyl-1H-imidazole-4,5-dicarboxamide], the half-inhibitory concentration (IC50) at TNKS2 amounted to 0.58 µM; in assay [1] (setting [2]), 40 µM.
For `CNC(=O)c1nc[nH]c1C(=O)Nc1ccc(NC(=O)c2ccccc2)cc1` [Example 21, N^5-[4-(benzoylamino)phenyl]-N^4-methyl-1H-imidazole-4,5-dicarboxamide], the IC50 at TNKS2 is above 10 µM; in assay [1] (setting [2]), 35 µM; in assay [1] (setting [3]), 35 µM.
Consider `O=C(Nc1ccc(NC(=O)c2ocnc2C(=O)NCCN2CCCCC2)cc1)c1ccc(F)cc1Cl` [Example 303, N^5-{4-[(2-chloro-4-fluorobenzoyl)amino]phenyl}-N^4-[2-(piperidin-1-yl)ethyl]-1,3-oxazole-4,5-dicarboxamide], for which the figures for the IC50 (against TNKS2; in assay [1] (setting [2])) were 0.01 µM and 8.1 µM, respectively.
Regarding `CN(C)CCNC(=O)c1nc[nH]c1C(=O)Nc1ccc(NC(=O)c2ccc(F)cc2Cl)cc1` [Example 22, N^4-{4-[(2-chloro-4-fluorobenzoyl)amino]phenyl}-N^5-[2-(dimethylamino)ethyl]-1H-imidazole-4,5-dicarboxamide], the values for the IC50 (against TNKS2; in assay [1] (setting [3])) were 0.02 µM and at least 50 µM, respectively.
As for `C[C@@H]1CCCN(CCNC(=O)c2[nH]cnc2C(=O)Nc2ccc(NC(=O)c3ccc(F)cc3Cl)cc2)C1` [Example 278, N^4-{4-[(2-chloro-4-fluorobenzoyl)amino]phenyl}-N^5-{2-[(3R)-3-methylpiperidin-1-yl]ethyl}-1H-imidazole-4,5-dicarboxamide], the half-maximal inhibitory concentration (IC50) came out at 0.005 µM against TNKS2 and 25 µM in assay [1] (setting [2]).
For the compound `CN1CCCC(CNC(=O)c2[nH]cnc2C(=O)Nc2ccc(NC(=O)c3ccc(F)cc3Cl)cc2)C1` (centres unmarked) [Example 298, N^4-{4-[(2-chloro-4-fluorobenzoyl)amino]phenyl}-N^5-[(1-methylpiperidin-3-yl)methyl]-1H-imidazole-4,5-dicarboxamide], the IC50 on TNKS2 turned out to be 0.06 µM; in assay [1] (setting [2]) it was 17 µM.
On to `O=C(Nc1ccc(NC(=O)c2nc[nH]c2C(=O)NCCN2CCC(F)(F)C2)cc1)c1ccc(F)cc1Cl` [Example 279, N^4-{4-[(2-chloro-4-fluorobenzoyl)amino]phenyl}-N^5-[2-(3,3-difluoropyrrolidin-1-yl)ethyl]-1H-imidazole-4,5-dicarboxamide], for which the values for the IC50 (against TNKS2; in assay [1] (setting [2])) were 0.02 µM and 12 µM, respectively.
On to `O=C(Nc1ccc(NC(=O)c2[nH]cnc2C(=O)NCCC2CCCC2)cc1)c1cc(F)c(F)cc1Cl` [Example 48, N^5-{4-[(2-chloro-4,5-difluorobenzoyl)amino]phenyl}-N^4-(2-cyclopentylethyl)-1H-imidazole-4,5-dicarboxamide], for which the half-maximal inhibitory concentration (IC50) against TNKS2 is above 10 µM; in assay [1] (setting [2]) it was 17 µM.
For the compound `CN1CCN(CC(C)(C)CNC(=O)c2nc[nH]c2C(=O)Nc2ccc(NC(=O)c3ccc(F)cc3Cl)cc2)CC1` [Example 415, N^5-{4-[(2-chloro-4-fluorobenzoyl)amino]phenyl}-N^4-[2,2-dimethyl-3-(4-methylpiperazin-1-yl)propyl]-1H-imidazole-4,5-dicarboxamide], the results for the IC50 (on TNKS2; in assay [1] (setting [2])) were 0.08 µM and 7.8 µM, respectively.
For `O=C(Nc1ccc(NC(=O)c2[nH]cnc2C(=O)NCCN2CCCCC2)cc1)c1ccc(F)cc1I` [Example 62, N^5-{4-[(4-fluoro-2-iodobenzoyl)amino]phenyl}-N^4-[2-(piperidin-1-yl)ethyl]-1H-imidazole-4,5-dicarboxamide], the IC50 against TNKS2 was 0.31 µM; in assay [1] (setting [2]), 24 µM.
On to `O=C(Nc1ccc(NC(=O)c2[nH]cnc2C(=O)N2CCOCC2)cc1)c1ccc(F)cc1Cl` [Example 29, N-{4-[(2-chloro-4-fluorobenzoyl)amino]phenyl}-5-(morpholin-4-ylcarbonyl)-1H-imidazole-4-carboxamide], for which the IC50 on TNKS2 is 1.9 µM; in assay [1] (setting [3]), at least 50 µM.
Turning to `CNC(=O)c1nc[nH]c1C(=O)Nc1ccc(NC(=O)c2ccccc2OC)cc1` [Example 60, N^5-{4-[(2-methoxybenzoyl)amino]phenyl}-N^4-methyl-1H-imidazole-4,5-dicarboxamide], the IC50 was above 10 µM on TNKS2 and 9.75 µM in assay [1] (setting [2]).
Turning to `CC(C)N(CCNC(=O)c1nc[nH]c1C(=O)Nc1ccc(NC(=O)c2ccc(F)cc2Cl)cc1)C(C)C` [Example 389, N^5-{4-[(2-chloro-4-fluorobenzoyl)amino]phenyl}-N^4-{2-[di(propan-2-yl)amino]ethyl}-1H-imidazole-4,5-dicarboxamide], the figures for the IC50 (on TNKS2; in assay [1] (setting [2])) were 0.28 µM and 11 µM, respectively.
